Test results from patent EP3156406A1, “CRYSTALLINE FORMS OF RIBOCICLIB FREE BASE” (ratiopharm GmbH, priority 2015, dated 2017).
Values after ≈ are worked out from the molar mass of the structure shown.

Legend:
Type in all cases: physicochemical
[1] = Long term stability of solid form at 40°C/75%r.h.
[2] = Dynamic vapor sorption - stability of solid form; details: 25°C, humidity cycles 0-95% RH
Protocol: Vapour sorption experiments were performed in the instrument SPSx-1µ (Projekt Messtechnik, Ulm, Germany) at temperature of 25°C and the humidity cycles as shown below. Humidity cycle conditions: [table]

[3] = Solubility in aqueous solvents; details: for Solubility: 37°C
Protocol: Approx. 340 mg (exactly weighed) test substance was weighed into a glass vial, followed by addition of 2.5 ml solvent. A stirring bar was added, the vial was fixed in a block heater at 37°C and the suspension was stirred with approx. 250 rpm. After 15 min and 1 h, samples were withdrawn, filtered through a 0.2 µm disposable filter, 50 µl of the clear filtrate were diluted with 950 µl DMSO and 2 µl thereof were analyzed by HPLC/UV.

Compound: CN(C)C(=O)c1cc2cnc(Nc3ccc(N4CCNCC4)cn3)nc2n1C1CCCC1 [Form 1, 7-cyclopentyl-N,N-dimethyl-2-((5-(piperazin-1-yl)pyridin-2-yl)amino)-7H-pyrrolo[2,3-d]pyrimidine-6-carboxamide]
- Long term stability at 40°C/75%r.h. (4 weeks) [1]: stable
- Long term stability at 40°C/75%r.h. (12 weeks) [1]: stable
- Stability of solid form (in DVS) [2]: stable
- Solubility ([3]; 0.01 N HCl ∼pH2.2, 15 min, listed as RBC free base form 1): 3800 µg/mL (≈ 8.74 mM)
- Solubility ([3]; 0.01 N HCl ∼pH2.2, 1 h, listed as RBC free base form 1): 3400 µg/mL (≈ 7.82 mM)
- Solubility ([3]; 20mM NaAc pH4.5, 1 h, listed as RBC free base form 1): 14200 µg/mL (≈ 32.7 mM)
- solubility at 15 min ([3]; 20 mM sodium acetate buffer, 37 °C, pH 4.5, aqueous buffer, thermodynamic from solid, 20mM NaAc pH4.5, 15 min): 14200 µg/mL (≈ 32.7 mM)
- Solubility ([3]; 50mM KH2PO4 pH6.5 + 2%TPGS, 15 min, listed as RBC free base form 1): 3600 µg/mL
- Solubility ([3]; 50mM KH2PO4 pH6.5 + 2%TPGS, 1 h, listed as RBC free base form 1): 1500 µg/mL
- Solubility ([3]; 50mM KH2PO4 pH6.8, 15 min, listed as RBC free base form 1): 1500 µg/mL (≈ 3.45 mM)
- Solubility ([3]; 50mM KH2PO4 pH6.8, 1 h, listed as RBC free base form 1): 1600 µg/mL (≈ 3.68 mM)

Compound: CN(C)C(=O)c1cc2cnc(Nc3ccc(N4CCNCC4)cn3)nc2n1C1CCCC1 [Form 7, 7-cyclopentyl-N,N-dimethyl-2-((5-(piperazin-1-yl)pyridin-2-yl)amino)-7H-pyrrolo[2,3-d]pyrimidine-6-carboxamide]
- Long term stability at 40°C/75%r.h. (4 weeks) [1]: stable
- Long term stability at 40°C/75%r.h. (12 weeks) [1]: stable
- Stability of solid form (in DVS) [2]: stable
- Solubility ([3]; 0.01 N HCl ∼pH2.2, 15 min, listed as RBC free base form 7): 3100 µg/mL (≈ 7.13 mM)
- Solubility ([3]; 0.01 N HCl ∼pH2.2, 1 h, listed as RBC free base form 7): 3000 µg/mL (≈ 6.9 mM)
- Solubility ([3]; 20mM NaAc pH4.5, 15 min, listed as RBC free base form 7): 11300 µg/mL (≈ 26 mM)
- solubility at 1 h ([3]; 20 mM sodium acetate buffer, 37 °C, pH 4.5, aqueous buffer, thermodynamic from solid, 20mM NaAc pH4.5, 1 h): 11500 µg/mL (≈ 26.5 mM)
- Solubility ([3]; 50mM KH2PO4 pH6.5 + 2%TPGS, 15 min, listed as RBC free base form 7): 800 µg/mL
- Solubility ([3]; 50mM KH2PO4 pH6.5 + 2%TPGS, 1 h, listed as RBC free base form 7): 800 µg/mL
- Solubility ([3]; 50mM KH2PO4 pH6.8, 15 min, listed as RBC free base form 7): 500 µg/mL (≈ 1.15 mM)
- Solubility ([3]; 50mM KH2PO4 pH6.8, 1 h, listed as RBC free base form 7): 1100 µg/mL (≈ 2.53 mM)

Compound: CN(C)C(=O)c1cc2cnc(Nc3ccc(N4CCNCC4)cn3)nc2n1C1CCCC1 [Form 6, 7-cyclopentyl-N,N-dimethyl-2-((5-(piperazin-1-yl)pyridin-2-yl)amino)-7H-pyrrolo[2,3-d]pyrimidine-6-carboxamide]
- Long term stability at 40°C/75%r.h. (4 weeks) [1]: stable
- Long term stability at 40°C/75%r.h. (12 weeks) [1]: stable
- Stability of solid form (in DVS) [2]: stable
- Solubility ([3]; 0.01 N HCl ∼pH2.2, 15 min, listed as RBC free base form 6): 400 µg/mL (≈ 0.92 mM)
- Solubility ([3]; 0.01 N HCl ∼pH2.2, 1 h, listed as RBC free base form 6): 200 µg/mL (≈ 0.46 mM)
- Solubility ([3]; 20mM NaAc pH4.5, 15 min, listed as RBC free base form 6): 12200 µg/mL (≈ 28.1 mM)
- Solubility ([3]; 20mM NaAc pH4.5, 1 h, listed as RBC free base form 6): 9700 µg/mL (≈ 22.3 mM)
- Solubility ([3]; 50mM KH2PO4 pH6.5 + 2%TPGS, 15 min, listed as RBC free base form 6): 2800 µg/mL
- Solubility ([3]; 50mM KH2PO4 pH6.5 + 2%TPGS, 1 h, listed as RBC free base form 6): 2400 µg/mL
- Solubility ([3]; 50mM KH2PO4 pH6.8, 15 min, listed as RBC free base form 6): 1200 µg/mL (≈ 2.76 mM)
- Solubility ([3]; 50mM KH2PO4 pH6.8, 1 h, listed as RBC free base form 6): 500 µg/mL (≈ 1.15 mM)

Compound: CN(C)C(=O)c1cc2cnc(Nc3ccc(N4CCNCC4)cn3)nc2n1C1CCCC1 [Form 4, 7-cyclopentyl-N,N-dimethyl-2-((5-(piperazin-1-yl)pyridin-2-yl)amino)-7H-pyrrolo[2,3-d]pyrimidine-6-carboxamide, reference compound]
- Stability of solid form (in DVS) [2]: Unstable at RT and ambient conditions

Compound: CN(C)C(=O)c1cc2cnc(Nc3ccc(N4CCNCC4)cn3)nc2n1C1CCCC1 [Form 8, 7-cyclopentyl-N,N-dimethyl-2-((5-(piperazin-1-yl)pyridin-2-yl)amino)-7H-pyrrolo[2,3-d]pyrimidine-6-carboxamide]
- Long term stability at 40°C/75%r.h. (4 weeks) [1]: stable
- Long term stability at 40°C/75%r.h. (12 weeks) [1]: stable
- Solubility ([3]; 0.01 N HCl ∼pH2.2, 15 min, listed as RBC free base form 8): 4000 µg/mL (≈ 9.2 mM)
- Solubility ([3]; 0.01 N HCl ∼pH2.2, 1 h, listed as RBC free base form 8): 1000 µg/mL (≈ 2.3 mM)
- Solubility ([3]; 50mM KH2PO4 pH6.5 + 2%TPGS, 15 min, listed as RBC free base form 8): 3900 µg/mL
- Solubility ([3]; 50mM KH2PO4 pH6.5 + 2%TPGS, 1 h, listed as RBC free base form 8): 900 µg/mL
